# From US20140004207A1, “Analgesic Apatitic Calcium-Phosphate Cement” (priority 2008, published 2014)
# What was measured:
# [1] = HPLC and MS analysis of bupivacaine after association and release from CDA; type: physicochemical; details: cold isostatic compression; three days in water at 37° C.; HPLC and MS vs native molecule
# Procedure: Bupivacaine-loaded CDA (400 mg) was stirred in 5 ml of water for three days at 37° C. The aqueous solution was passed through a microfiltration membrane with a pore size of 0.22 μm. Several aliquots of this solution were diluted to working concentration with HPLC. An aliquot of this solution (1 ml) was extracted with 1 ml of dichloromethane (HiPerSolv for HPLC, VWR-BDH). The organic phase was dried over Na2SO4 for further MS studies. HPLC HP 1100 (C18 column, Inertsil 5 ODS-3), flow: 0.5 ml mn^−1, solvent: acetonitrile/water [80/20], injection volume: 10 μl, detection: 230 nm). The liquid phase was prepared by mixing Acetonitrile for HPLC Gradient Grade (VWR-BDH-Prolabo) with pure water. A thermo Electron Corporation DSQ II bench-top quadruple mass spectrometer fitted with a direct sample probe or GC, with chemical ionization (CI), was used for data acquisition and processing.
# [2] = Stability of bupivacaine within the composition on storage; type: physicochemical; details: 4° C.
# Procedure: The same method was applied to determine the lidocaine release. A first assay confirmed that the bupivacaine within the composition is stable for 3 months at 4° C.
# [3] = intrabone injection, percutaneous vertebroplastics; cited from earlier work
# [4] = continuous intravenous administration; cited from earlier work
integrity of bupivacaine after association with CDA granules and release [1],stability of bupivacaine within the composition [2] [months],SMILES,effectiveness versus antalgic protocol comprising nalbuphine and paracetamol [3],serum levels of lidocaine [3],postoperative morphine intake [4]
remained unchanged,3,CCCCN1CCCCC1C(=O)Nc1c(C)cccc1C (centres unmarked) [bupivacaine],,,
,,CCN(CC)CC(=O)Nc1c(C)cccc1C [lidocaine],comparable effectiveness,much below the toxic level,reduction of the postoperative morphine intake
